Measurements taken from BindingDB's records for PubMed 35261239 (Bristol-Myers Squibb Company, 2022).

Target: TGF-beta-activated kinase 1 (MAP3K7)
Assay: Inhibition of TAK (unknown origin)

SMILES | IC50 [nM]
COC(=O)Nc1cc(-c2cnc(OC[C@@](C)(N)CC(C)C)c(Cl)c2)ccn1 | 120
COC(=O)Nc1cc(-c2cnc(OC[C@@](C)(N)CC(C)C)c(C#N)c2)ccn1 | 260
